The values that follow come from PMC9343605, “Structural insights into ligand recognition and selectivity of somatostatin receptors” (Cell Research, 2022).

Type in all cases: cell-based
Holding throughout (design): expressed in transfected cells; host or cells: HEK293F

In assay [1] the target is SSTR4 (Homo sapiens, UniProt P31391, N199A). The assay is described as follows: cAMP accumulation assay (agonist-induced inhibition of forskolin-stimulated cAMP), SSTR4, HEK293F.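 Note: transiently transfected cells incubated 40 min at room temperature with 4 µM forskolin and graded ligand, cAMP read by LANCE Ultra TR-FRET kit, values normalized to WT receptor per ligand.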 The note with it: SSTR4 mutant N199^ECL2A; mean ± SEM. Background: cAMP levels reflect the balance of adenylyl cyclase and phosphodiesterase activity.
Protocol: (§1) HEK293F cells were transiently transfected with WT or mutant SSTR2/SSTR4 using transfection reagent (PEI MAX 2000, Polysciences) and incubated at 37 °C in 5% CO2. Forty-eight hours after transfection, cells were centrifuged and resuspended in stimulation buffer (Hanks’ balanced salt solution (HBSS) supplemented with 5 mM HEPES, 0.5 mM IBMX and 0.1% (w/v) bovine serum albumin (BSA), pH 7.4) to a density of 200,000 cells/mL and added to 384-well white plates (PerkinElmer, 1000 cells/well). cAMP accumulation was measured by a LANCE Ultra cAMP kit (PerkinElmer) according to the manufacturer’s instructions. In brief, transfected cells were incubated for 40 min in stimulation buffer with 2.5 μL forskolin (SSTR2: 2 μM; SSTR4: 4 μM) and gradient concentration of ligand at RT. The reactions were stopped by addition of lysis buffer containing 5 μL Eu-cAMP tracer and 5 μL ULight-anti-cAMP. Plates were then incubated for 60 min at RT and time-resolved FRET signals were measured at 620 nm and 665 nm by an EnVision multilabel plate reader (PerkinElmer). Data were analyzed in GraphPad PRISM 8 and all values were normalized to the WT for each ligand. All outcomes were repeated at least three times.
(§2) aMutants represent that mutations were introduced separately into the WT receptors and
(§3) transiently expressed in HEK 293F cells.
(§4) bThe EC50 ratio was shown as EC50(mutant)/EC50(WT), indicating the shift between the WT
(§5) and mutant curves, reflecting the effect of the mutations on receptor signaling.
(§6) cData are shown as mean ± S.E.M. from at least three independent experiments
(§7) performed in technical triplicate. One-way ANOVA was performed followed by
(§8) Dunnett’s post-test and compared with WT. The P value was defined as: *P<0.05;
(§9) d The span is defined as the window between the maximal agonists response (Emax) and
(§10) e Sample size; the number of independent experiments performed in technical triplicate.
(§11) f Receptor expression level of HEK 293F cells was determined independently by flow
(§12) cytometry with anti-FLAG antibody and shown as per cent compared to the WT.
The target of assay [2] is SSTR4 (Homo sapiens, UniProt P31391). Described as above. Conditions: WT SSTR4, mean ± SEM.
Protocol: as §1, §2, §3, §4, §5, §6, §7, §8, §9, §10, §11, §12
Assay [3] concerns the target SSTR4 (Homo sapiens, UniProt P31391, F275A). Described as above. The note with it: SSTR4 mutant F275^6.51A; mean ± SEM.
Protocol: as §1, §2, §3, §4, §5, §6, §7, §8, §9, §10, §11, §12
For assay [4], the target named is SSTR4 (Homo sapiens, UniProt P31391, M130A). The assay is described as above. The note with it: SSTR4 mutant M130^3.36A; mean ± SEM.
Protocol: as §1, §2, §3, §4, §5, §6, §7, §8, §9, §10, §11, §12
The target of assay [5] is SSTR4 (Homo sapiens, UniProt P31391, Y301A). Described as above. The note with it: SSTR4 mutant Y301^7.43A; mean ± SEM.
Protocol: as §1, §2, §3, §4, §5, §6, §7, §8, §9, §10, §11, §12
Assay [6] has as its target SSTR4 (Homo sapiens, UniProt P31391, Y276A). Described as above. Conditions: SSTR4 mutant Y276^6.52A; mean ± SEM.
Protocol: as §1, §2, §3, §4, §5, §6, §7, §8, §9, §10, §11, §12
Assay [7] has as its target SSTR4 (Homo sapiens, UniProt P31391, Q279A). The assay is described as above. Conditions: SSTR4 mutant Q279^6.55A; mean ± SEM.
Protocol: as §1, §2, §3, §4, §5, §6, §7, §8, §9, §10, §11, §12
The target of assay [8] is SSTR4 (Homo sapiens, UniProt P31391, T215A). The assay is described as above. The note with it: SSTR4 mutant T215^5.42A; mean ± SEM.
Protocol: as §1, §2, §3, §4, §5, §6, §7, §8, §9, §10, §11, §12
The target in assay [9] is SSTR4 (Homo sapiens, UniProt P31391, D126A). The description is as above. The note with it: SSTR4 mutant D126^3.32A; mean ± SEM.
Protocol: as §1, §2, §3, §4, §5, §6, §7, §8, §9, §10, §11, §12
Assay [10] deals with SSTR4 (Homo sapiens, UniProt P31391, V264F). The assay is described as above.
Protocol: as §1, §2, §3, §4, §5, §6, §7, §8, §9, §10, §11, §12
The target in assay [11] is SSTR2 (Homo sapiens, UniProt P30874, F294A). The assay is described as follows: cAMP accumulation assay (agonist-induced inhibition of forskolin-stimulated cAMP), SSTR2, HEK293F.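 Note: transiently transfected cells exposed to 2 µM forskolin and a ligand concentration series for 40 min at room temperature in IBMX-containing HBSS, then cAMP quantified.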 Conditions: SSTR2 mutant F294^7.35A; mean ± SEM.
Protocol: as §1, §2, §3, §4, §5, §6, §7, §8, §9, §10, §11, §12
Assay [12] deals with SSTR2 (Homo sapiens, UniProt P30874, F272A). The description is as above. Conditions: SSTR2 mutant F272^6.51A; mean ± SEM.
Protocol: as §1, §2, §3, §4, §5, §6, §7, §8, §9, §10, §11, §12
Assay [13] addresses SSTR2 (Homo sapiens, UniProt P30874, Y205A). Described as above. The note with it: SSTR2 mutant Y205^5.35A.
Protocol: as §1, §2, §3, §4, §5, §6, §7, §8, §9, §10, §11, §12
Assay [14] deals with SSTR2 (Homo sapiens, UniProt P30874, T194A). The description is as above. The note with it: SSTR2 mutant T194^ECL2A; mean ± SEM.
Protocol: as §1, §2, §3, §4, §5, §6, §7, §8, §9, §10, §11, §12
Assay [15] concerns the target SSTR2 (Homo sapiens, UniProt P30874, Q102A). The description is as above. The note with it: SSTR2 mutant Q102^2.63A; mean ± SEM.
Protocol: as §1, §2, §3, §4, §5, §6, §7, §8, §9, §10, §11, §12
Assay [16] addresses SSTR2 (Homo sapiens, UniProt P30874, Y302A). The description is as above. Conditions: SSTR2 mutant Y302^7.43A; mean ± SEM.
Protocol: as §1, §2, §3, §4, §5, §6, §7, §8, §9, §10, §11, §12
Assay [17] addresses SSTR2 (Homo sapiens, UniProt P30874, Q126A). The description is as above. Conditions: SSTR2 mutant Q126^3.36A; mean ± SEM.
Protocol: as §1, §2, §3, §4, §5, §6, §7, §8, §9, §10, §11, §12
Assay [18] deals with SSTR2 (Homo sapiens, UniProt P30874). The description is as above. Conditions: WT SSTR2.
Protocol: as §1, §2, §3, §4, §5, §6, §7, §8, §9, §10, §11, §12
Assay [19] has as its target SSTR2 (Homo sapiens, UniProt P30874, T212A). Described as above. The note with it: SSTR2 mutant T212^5.42A; mean ± SEM.
Protocol: as §1, §2, §3, §4, §5, §6, §7, §8, §9, §10, §11, §12

SSTR4 (Homo sapiens, UniProt P31391, V264F), sequence (P31391 1-328 V264F): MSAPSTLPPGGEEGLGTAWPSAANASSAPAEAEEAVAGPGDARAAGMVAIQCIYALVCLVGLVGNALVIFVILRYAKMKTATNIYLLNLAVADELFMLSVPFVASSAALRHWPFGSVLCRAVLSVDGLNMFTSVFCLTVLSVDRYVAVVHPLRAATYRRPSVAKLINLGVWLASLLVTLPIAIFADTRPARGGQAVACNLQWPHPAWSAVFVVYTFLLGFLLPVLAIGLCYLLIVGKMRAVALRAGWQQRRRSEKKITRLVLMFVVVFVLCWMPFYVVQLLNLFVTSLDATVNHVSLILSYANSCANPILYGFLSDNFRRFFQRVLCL
SSTR2 (Homo sapiens, UniProt P30874), sequence (P30874 whole entry): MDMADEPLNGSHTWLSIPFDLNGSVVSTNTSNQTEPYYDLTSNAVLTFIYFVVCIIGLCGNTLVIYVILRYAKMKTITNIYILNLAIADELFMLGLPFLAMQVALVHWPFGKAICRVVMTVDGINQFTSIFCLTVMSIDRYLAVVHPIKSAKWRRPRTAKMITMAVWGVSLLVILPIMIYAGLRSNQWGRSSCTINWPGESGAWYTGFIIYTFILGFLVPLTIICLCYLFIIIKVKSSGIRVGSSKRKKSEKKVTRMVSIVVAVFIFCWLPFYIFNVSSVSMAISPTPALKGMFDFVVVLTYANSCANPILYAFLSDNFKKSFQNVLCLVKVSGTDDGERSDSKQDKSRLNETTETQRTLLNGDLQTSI
SSTR2 (Homo sapiens, UniProt P30874, Y302A), sequence (P30874 whole entry Y302A): as the sequence (P30874 whole entry) above, with Y302A counted along it
SSTR4 (Homo sapiens, UniProt P31391, Q279A), sequence (P31391 whole entry Q279A): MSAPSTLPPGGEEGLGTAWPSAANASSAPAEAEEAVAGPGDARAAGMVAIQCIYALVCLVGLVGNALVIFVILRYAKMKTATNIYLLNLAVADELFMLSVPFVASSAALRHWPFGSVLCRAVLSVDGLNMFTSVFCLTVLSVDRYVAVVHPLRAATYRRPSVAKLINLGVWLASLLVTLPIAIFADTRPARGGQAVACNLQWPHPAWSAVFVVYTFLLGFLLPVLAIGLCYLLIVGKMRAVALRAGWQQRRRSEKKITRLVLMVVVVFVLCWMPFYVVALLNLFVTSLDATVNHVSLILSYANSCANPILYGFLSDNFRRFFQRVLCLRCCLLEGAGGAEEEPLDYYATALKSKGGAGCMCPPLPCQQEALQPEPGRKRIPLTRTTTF
SSTR4 (Homo sapiens, UniProt P31391, Y301A), sequence (P31391 whole entry Y301A): as the sequence (P31391 whole entry Q279A) above, with A279Q, Y301A counted along it
SSTR4 (Homo sapiens, UniProt P31391), sequence (P31391 whole entry): as the sequence (P31391 whole entry Q279A) above, with A279Q counted along it
SSTR2 (Homo sapiens, UniProt P30874, Q126A), sequence (P30874 whole entry Q126A): as the sequence (P30874 whole entry) above, with Q126A counted along it
SSTR2 (Homo sapiens, UniProt P30874, Q102A), sequence (P30874 whole entry Q102A): as the sequence (P30874 whole entry) above, with Q102A counted along it
SSTR4 (Homo sapiens, UniProt P31391, N199A), sequence (P31391 whole entry N199A): as the sequence (P31391 whole entry Q279A) above, with N199A, A279Q counted along it
SSTR2 (Homo sapiens, UniProt P30874, F294A), sequence (P30874 whole entry F294A): as the sequence (P30874 whole entry) above, with F294A counted along it
SSTR2 (Homo sapiens, UniProt P30874, F272A), sequence (P30874 whole entry F272A): as the sequence (P30874 whole entry) above, with F272A counted along it
SSTR4 (Homo sapiens, UniProt P31391, T215A), sequence (P31391 whole entry T215A): as the sequence (P31391 whole entry Q279A) above, with T215A, A279Q counted along it
SSTR4 (Homo sapiens, UniProt P31391, Y276A), sequence (P31391 whole entry Y276A): as the sequence (P31391 whole entry Q279A) above, with Y276A, A279Q counted along it
SSTR4 (Homo sapiens, UniProt P31391, M130A), sequence (P31391 whole entry M130A): as the sequence (P31391 whole entry Q279A) above, with M130A, A279Q counted along it
SSTR2 (Homo sapiens, UniProt P30874, Y205A), sequence (P30874 whole entry Y205A): as the sequence (P30874 whole entry) above, with Y205A counted along it
SSTR2 (Homo sapiens, UniProt P30874, T194A), sequence (P30874 whole entry T194A): as the sequence (P30874 whole entry) above, with T194A counted along it
SSTR2 (Homo sapiens, UniProt P30874, T212A), sequence (P30874 whole entry T212A): as the sequence (P30874 whole entry) above, with T212A counted along it
SSTR4 (Homo sapiens, UniProt P31391, D126A), sequence (P31391 whole entry D126A): as the sequence (P31391 whole entry Q279A) above, with D126A, A279Q counted along it
SSTR4 (Homo sapiens, UniProt P31391, F275A), sequence (P31391 whole entry F275A): as the sequence (P31391 whole entry Q279A) above, with F275A, A279Q counted along it

Regarding `Cc1ccc(S(=O)(=O)N[C@@H](CCN)C(=O)N[C@@H](Cc2ccccc2)C(N)=O)c2ccccc12` [J-2156], the Span is 88±5 % of WT at SSTR4 [1]; 100±3 % of WT on SSTR4 [2] (window between Emax and vehicle); 22±7 % of WT at SSTR4 [3]; 78±6 % of WT on SSTR4 [4]; 64±7 % of WT on SSTR4 [5]; 106±6 % of WT on SSTR4 [6]. The Span at SSTR4 [7] is 98±6 % of WT; on SSTR4 [8], 92±5 % of WT; on SSTR4 [9], 23±28 % of WT; at SSTR4 [10] (Construct 4 SSTR4, mean ± SEM), 106±5 % of WT. Moreover, the “pEC50 ± SEM” value turned out to be 10.23±0.14 on SSTR4 [1]; 9.73±0.08 on SSTR4 [2] (HEK293F, at least three independent experiments); 9.12±0.19 on SSTR4 [4]; 7.02±019 on SSTR4 [5]; 6.71±0.08 on SSTR4 [6]; 9.57±0.17 on SSTR4 [7]. For the same compound, the “pEC50 ± SEM” value is on record as 9.85±0.14 at SSTR4 [8] and 10.46±0.13 at SSTR4 [10] (Construct 4 SSTR4, mean ± SEM). The EC50 (in general, the concentration at which the effect is half-maximal) at SSTR4 [10] (Construct 4 SSTR4 (V264F, C-terminal truncation)) is 0.03 nM.

Turning to `C[C@@H](c1c[nH]c2ccccc12)[C@@H](NC(=O)N1CCC(n2c(=O)[nH]c3ccccc32)CC1)C(=O)N[C@@H](CCCCN)C(=O)OC(C)(C)C` [L-054,522], the Span at SSTR2 [11] is on record as 95±8 % of WT; at SSTR2 [12], 215±18 % of WT; on SSTR2 [13] (mean ± SEM) it was 143±18 % of WT; at SSTR2 [14], 104±10 % of WT; at SSTR2 [15], 79±6 % of WT; on SSTR2 [16], 96±8 % of WT. Moreover, the Span at SSTR2 [17] was 82±6 % of WT; on SSTR2 [18] (window between Emax and vehicle, mean ± SEM), 100±4 % of WT; on SSTR2 [19], 108±5 % of WT. In addition, the “pEC50 ± SEM” value amounted to 8.36±0.20 on SSTR2 [11]; 7.85±0.19 on SSTR2 [12]; 9.26±0.23 on SSTR2 [14]; 9.46±0.18 at SSTR2 [15]; 8.67±0.19 on SSTR2 [16]; 9.18±0.17 at SSTR2 [17]. For the same compound, the “pEC50 ± SEM” value at SSTR2 [18] (HEK293F, mean ± SEM, at least three independent experiments) came to 9.67±0.08; at SSTR2 [19] it was 8.94±0.12. For the same compound, the EC50 on SSTR2 [13] came out at 0.01 nM. Besides, the EC50 ratio at SSTR2 [18] (EC50(mutant)/EC50(WT)) came out at 1.
